According to ChEMBL document CHEMBL3124812, “Benzamidobenzoic acids as potent PqsD inhibitors for the treatment of Pseudomonas aeruginosa infections” (Eur J Med Chem, 2014):
Calls of active or inactive are those of the source. The rule behind the calls is not given here.

Experiments:
[1] = Inhibition of Pseudomonas aeruginosa His-6-tagged PqsD expressed in Escherichia coli BL21 (lambdaDE3) using anthraniloyl-CoA/beta-ketodecanoic acid as substrate by LC-MS/MS analysis
[2] = test system: Escherichia coli; experiment: Inhibition of Escherichia coli RNAP assessed as incorporation of [5,6-3H]UTP at 200 uM preincubated for 10 mins followed by DNA template and ATP, CTP, GTP, UTP, [5,6-3H]UTP addition measured after 10 mins by scintillation counting analysis

Row | IC50 ([1]; read-out: IC50) [µM] | inhibition [2] | Compound | other results
1 | 5.7 | – | O=C(Nc1cc(Cl)ccc1C(=O)O)c1cccc(Oc2ccccc2)c1 | –
2 | 3.3 | – | O=C(Nc1cc([N+](=O)[O-])ccc1C(=O)O)c1ccc(-c2ccccc2)cc1 | –
3 | – | inactive | NS(=O)(=O)c1cccc(C(=O)Nc2ccccc2C(=O)O)c1 | –
4 | 15.2 | – | O=C(Nc1ccc(F)cc1C(=O)O)c1ccc(-c2ccccc2)cc1 | –
5 | – | – | COc1cccc(NC(=O)c2ccc(-c3ccccc3)cc2)c1C(=O)O | IC50 [1]: Not Active
6 | 3.2 | – | O=C(Nc1cc(Br)ccc1C(=O)O)c1ccc(-c2ccccc2)cc1 | –
7 | – | inactive | CCN(CC)S(=O)(=O)c1cc(C(=O)Nc2ccccc2C(=O)O)ccc1C | –
8 | – | inactive | CCN(CC)S(=O)(=O)c1cccc(C(=O)Nc2cccc(OC)c2C(=O)O)c1 | –
9 | – | 45% | CCN(CC)S(=O)(=O)c1cccc(C(=O)Nc2ccc(-c3cccc(C(N)=O)c3)cc2C(=O)O)c1 | –
10 | – | inactive | CCCN(CCC)S(=O)(=O)c1cccc(C(=O)Nc2ccccc2C(=O)O)c1 | –
11 | 3.4 | – | O=C(Nc1ccc(C(F)(F)F)cc1C(=O)O)c1ccc(-c2ccccc2)cc1 | –
12 | – | 24% | CCN(CC)S(=O)(=O)c1cccc(C(=O)Nc2ccc(-c3cccc(C(=O)O)c3)cc2C(=O)O)c1 | –
13 | 3.8 | – | O=C(Nc1ccc(Cl)cc1C(=O)O)c1ccc(-c2ccccc2)cc1 | –
14 | – | inactive | CCN(CC)C(=O)c1cccc(C(=O)Nc2ccc(Br)cc2C(=O)O)c1 | –
15 | 6 | – | O=C(Nc1cc(F)ccc1C(=O)O)c1ccc(-c2ccccc2)c(Oc2ccccc2)c1 | –
16 | – | inactive | CCN(CC)S(=O)(=O)c1cccc(C(=O)Nc2cc([N+](=O)[O-])ccc2C(=O)O)c1 | –
17 | 3.2 | – | O=C(Nc1ccc(Br)cc1C(=O)O)c1ccc(-c2ccccc2)cc1 | –
18 | – | inactive | CCN(CC)S(=O)(=O)c1cccc(C(=O)Nc2cccc(O)c2C(=O)O)c1 | –
19 | 5 | – | O=C(Nc1cc(Cl)ccc1C(=O)O)c1ccc(-c2ccccc2)c(Oc2ccccc2)c1 | –
20 | – | inactive | O=C(Nc1ccccc1C(=O)O)c1cccc(S(=O)(=O)N2CCCCCC2)c1 | –
21 | 6.6 | – | O=C(Nc1cc(-c2ccccc2)ccc1C(=O)O)c1cccc(Oc2ccccc2)c1 | –

Row | IC50 ([1]; read-out: IC50) [µM] | inhibition [2] | Compound | other results
22 | – | inactive | CCN(CC)S(=O)(=O)c1cccc(C(=O)Nc2ccc(C)cc2C(=O)O)c1 | –
23 | – | inactive | CCN(CC)S(=O)(=O)c1cccc(C(=O)Nc2cc(F)ccc2C(=O)O)c1 | –
24 | 6.2 | – | O=C(Nc1c(Cl)cccc1C(=O)O)c1ccc(-c2ccccc2)cc1 | –
25 | 4.9 | – | O=C(Nc1cc(C(F)(F)F)ccc1C(=O)O)c1ccc(-c2ccccc2)cc1 | –
26 | – | inactive | CCN(CC)S(=O)(=O)c1ccc(C(=O)Nc2ccccc2C(=O)O)cc1 | –
27 | 4.4 | – | O=C(Nc1ccc(Br)cc1C(=O)O)c1cccc(Oc2ccccc2)c1 | –
28 | – | inactive | CCN(CC)S(=O)(=O)c1cccc(C(=O)Nc2ccc(C#N)cc2C(=O)O)c1 | –
29 | – | inactive | O=C(Nc1ccccc1C(=O)O)c1cccc(S(=O)(=O)N2CCCC2)c1 | –
30 | – | inactive | O=C(Nc1ccccc1C(=O)O)c1cccc(S(=O)(=O)N2CCCCC2)c1 | –
31 | 7.7 | – | O=C(Nc1ccc(-c2ccccc2)cc1C(=O)O)c1cccc(Oc2ccccc2)c1 | –
32 | 5.1 | – | O=C(Nc1cc(Br)ccc1C(=O)O)c1cccc(Oc2ccccc2)c1 | –
33 | 4.2 | – | O=C(Nc1ccc(O)cc1C(=O)O)c1ccc(-c2ccccc2)cc1 | –
34 | – | inactive | CCN(CC)S(=O)(=O)c1cc(C(=O)Nc2ccccc2C(=O)O)ccc1Br | –
35 | 4 | – | O=C(Nc1ccc(OC(F)(F)F)cc1C(=O)O)c1ccc(-c2ccccc2)cc1 | –
36 | 8.7 | – | O=C(Nc1cc(Cl)ccc1C(=O)O)c1ccc(-c2ccccc2)cc1 | –
37 | 18.2 | – | O=C(Nc1cc(F)ccc1C(=O)O)c1ccc(-c2ccccc2)cc1 | –
38 | 8.6 | – | N#Cc1ccc(NC(=O)c2ccc(-c3ccccc3)cc2)c(C(=O)O)c1 | –
39 | 5 | – | O=C(Nc1ccc(Br)cc1C(=O)O)c1cccc(Cc2ccccc2)c1 | –
40 | 6.6 | – | O=C(Nc1ccccc1C(=O)O)c1ccc(-c2ccccc2)c(Oc2ccccc2)c1 | –
41 | – | – | O=C(Nc1ccccc1C(=O)O)c1ccccc1 | IC50 [1]: Not Active
